Measurements reported in patent publication US5607967A, “Treatment of alzheimer's disease with 5-(tetradecyloxy)-2-furan carboxylic acid” (Merck & Co., Inc., priority 1994, dated 1997).

Legend:
GR/NER chimeric receptor = assay: Activation of GR/NER in CV1 cells (luciferase); settings: for Fold of stimulation GR/NER, Control: without dopamine
Method: The ligand dependent transcription assays were performed as described in Example 4, using CV1 cells in place of COS cells. The transfected CV1 cells were treated with dopamine, TOFA, or with a combination of TOFA and dopamine at the indicated concentrations and tested for luciferase activity.
CV1 cells were co-transfected with the MMTV-Luciferase reporter gene (pJA358) and the GR/NER chimeric receptor as described in Example 4. The cells were treated with increasing amount of the dopamine D1 receptor antagonist SCH 23390 with or without 50 μM […] dopamine.

[1] = tested on: Dopamine D1 receptor antagonist (SCH 23390) induced catalepsy; assay: SCH 23390 induced catalepsy (Bar method); type: in vivo, rat; settings: carrier pretreatment, 24 h later 0.5 mg/kg SCH23390
Method: Rats were pretreated with 0.4 mg/kg TOFA or with carrier (S.C.). Twenty-four hours later, the rats were challenged with 0.5 mg/kg SCH23390, a Dopamine D1 antagonist, and the duration of catalepsy was monitored.
Catalepsy was determined by a modification of the Bar method (Undie and Friedman, 1988). A steel bar, 1.1 cm in diameter and 50 cm long, was suspended at a height of 10 cm above the working surface. Three sides of the bench around the bar were walled off with brown cardboard, and the linings on the bench surface were selected to be of the same color with the cardboard walls. The animal's hind limbs were freely placed on the bench, the fail laid out to the back, and the forelimbs placed over the bar. The length of time a rat stayed up on the bar was noted up to a preset cut-off point of 120 s. The time was counted off upon observing any of the following actions: (1) the animal came off, placing its two forepaws on the bench, (2) the animal climbed onto or over the bar with both hind limbs, (3) the animal initiated locomotion along or around the bar. Subsequently, time readings were translated into scores by awarding a score of 1 for each successfully completed 5 s on the bar. For each observation time, catalepsy scores were averaged for all the animals in a group to give the Mean Score of the group at that observation time. Further, the scores for each animal at all the observation times were added to give the total score for that animal. The mean of this last group of numbers was called the Mean Total Score of the group.
Catalepsy scores were analyzed by computer in accordance with the statistical procedures outlined by Winer, B. J.: Statistical principles in experimental design. McGraw-Hill, New York, pp. 10-428, 1971. Generally, for a given set of comparisons, observations were subjected to an appropriate analysis of variance followed by two-tailed Dunnett or Student's t-tests to detect differences between treatment groups.

[2] = chronic treatment, medial cholinergic pathway lesions; cited from earlier work
[3] = target: T1, GR/PPAR chimeric receptor (Mus musculus, UniProt P23204); assay: Ligand dependent transcription assay, GR/PPAR chimeric receptor with MMTV-luciferase reporter; type: cell-based
T1 construct: COS cells, MMTV-luciferase
T1 sequence (P23204 1-468): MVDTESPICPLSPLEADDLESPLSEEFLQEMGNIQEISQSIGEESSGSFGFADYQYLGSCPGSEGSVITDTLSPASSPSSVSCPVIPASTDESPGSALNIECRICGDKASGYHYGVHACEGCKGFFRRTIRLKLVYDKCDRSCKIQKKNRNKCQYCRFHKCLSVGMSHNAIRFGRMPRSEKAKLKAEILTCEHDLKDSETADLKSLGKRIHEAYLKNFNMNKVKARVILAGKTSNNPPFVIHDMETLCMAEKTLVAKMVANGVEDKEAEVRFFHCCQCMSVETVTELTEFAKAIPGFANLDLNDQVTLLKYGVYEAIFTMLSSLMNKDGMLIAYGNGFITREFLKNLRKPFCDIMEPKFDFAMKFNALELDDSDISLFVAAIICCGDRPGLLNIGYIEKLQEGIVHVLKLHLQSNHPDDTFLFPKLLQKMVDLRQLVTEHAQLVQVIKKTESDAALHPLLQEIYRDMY
T1 sequence (P06537 1-792 partner): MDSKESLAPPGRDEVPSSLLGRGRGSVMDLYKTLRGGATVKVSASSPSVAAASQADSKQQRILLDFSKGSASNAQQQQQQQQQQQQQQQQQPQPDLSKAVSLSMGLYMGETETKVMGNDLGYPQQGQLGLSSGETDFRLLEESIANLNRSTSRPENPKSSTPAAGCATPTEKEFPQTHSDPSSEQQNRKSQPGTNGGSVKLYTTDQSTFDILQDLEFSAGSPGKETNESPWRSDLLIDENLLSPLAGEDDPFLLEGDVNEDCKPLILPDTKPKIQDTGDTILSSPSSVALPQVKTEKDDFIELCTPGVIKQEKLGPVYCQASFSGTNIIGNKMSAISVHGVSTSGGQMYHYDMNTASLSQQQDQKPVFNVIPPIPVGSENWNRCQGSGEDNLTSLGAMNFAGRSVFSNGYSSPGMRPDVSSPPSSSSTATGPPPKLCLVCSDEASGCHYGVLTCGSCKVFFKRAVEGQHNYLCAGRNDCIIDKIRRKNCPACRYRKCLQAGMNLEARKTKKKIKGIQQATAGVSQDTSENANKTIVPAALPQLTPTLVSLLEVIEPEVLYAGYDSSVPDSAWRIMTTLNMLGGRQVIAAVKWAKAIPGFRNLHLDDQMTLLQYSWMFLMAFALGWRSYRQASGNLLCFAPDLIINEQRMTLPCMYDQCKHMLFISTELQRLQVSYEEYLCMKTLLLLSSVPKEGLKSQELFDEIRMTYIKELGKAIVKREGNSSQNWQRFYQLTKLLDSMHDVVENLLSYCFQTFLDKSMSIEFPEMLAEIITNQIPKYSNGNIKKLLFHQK
Method: Similar hybrid receptors GR/NER, GR/NUC and GR/PPAR, in identical expression plasmid backgrounds were prepared essentially as described for the construction of the GR/mPPAR and GR/NUC chimeric receptors in Schmidt et al., "Identification of a new member of the steroid hormone receptor superfamily that is activated by a peroxisome proliferator and fatty acids," Mol. Endocrinol., 6(10):1634-41, 1992, and in Boie et al., "Enantioselective activation of the peroxisome proliferator-activated receptor", J. Biol. Chem. 268(8):5530-4, 1993.
Briefly, the amino terminal portion of the mouse glucocorticoid receptor (mGR), that includes the DNA binding domain was fused to the putative ligand binding domains of the nuclear receptor NER, hNUC-I (Schmidt et al., 1992), mPPAR (Issenmann and Green, 1990) to form the respective chimeric receptors GR/NER, GR/NUC and GR/PPAR. The GR/NER chimeric receptor was constructed as described for the GR/NUC and GR/PPAR hybrid receptors (Schmidt et al., 1992; Boie et al). The cDNA sequences coding for amino acids Arg^155 and Glu^156 of the NER receptor were converted to the Xho I restriction site, that was later used for the ligation to the GR cDNA sequences that coded for the DNA binding domain. Thus, converting amino acid residues Arg^155 and Glu^156 of NER receptor to amino acid residues Ser^155 and His^156.
The ligand transcription assay mediated by GR/PPAR in COS cells was performed as described in Example 4. The cells were treated with TOFA and Cerulenin at 0.1, 1, 10 and 100 μM.

[4] = Toxicity to transfected COS cells in the transcription assay; type: cell-based; settings: monkey, GR/PPAR transcription assay, read-out: Concentrations toxic to the cells
Method: The ligand transcription assay mediated by GR/PPAR in COS cells was performed as described in Example 4. The cells were treated with TOFA and Cerulenin at 0.1, 1, 10 and 100 μM. Concentrations of cerulenin above 10 μM were toxic to the cells.

Compound | Effect on transcription mediated by GR/NER in CV1 cells (GR/NER chimeric receptor) | Effect on inhibition of luciferase expression caused by dopamine (GR/NER chimeric receptor; 50 μM dopamine) | Fold of stimulation GR/NER, Dopamine (50 μM) (GR/NER chimeric receptor; SCH-23390 0.1 μM with 50 μM dopamine) | Fold of stimulation GR/NER, Control (GR/NER chimeric receptor; SCH-23390 0.1 μM) | Fold of stimulation GR/NER, Dopamine (50 μM) (GR/NER chimeric receptor; SCH-23390 1.0 μM with 50 μM dopamine) | Fold of stimulation GR/NER, Control (GR/NER chimeric receptor; SCH-23390 1.0 μM) | Fold of stimulation GR/NER, Dopamine (50 μM) (GR/NER chimeric receptor; SCH-23390 10.0 μM with 50 μM dopamine) | Fold of stimulation GR/NER, Control (GR/NER chimeric receptor; SCH-23390 10.0 μM) | Fold of stimulation GR/NER, Dopamine (50 μM) (GR/NER chimeric receptor; SCH-23390 100 μM with 50 μM dopamine) | Fold of stimulation GR/NER, Control (GR/NER chimeric receptor; SCH-23390 100 μM) | Catalepsy Duration [1] | Radial-arm maze performance [2] | Expression mediated by GR/PPAR [3] | fold induction at 0.1 µM ([3]; 0.1 μM, COS cells, Table 2, read-out: Fold of stimulation GR/PPAR) | fold induction at 1 µM ([3]; 1.0 μM, COS cells, Table 2, read-out: Fold of stimulation GR/PPAR) | fold induction at 10 µM ([3]; 10.0 μM, COS cells, Table 2, read-out: Fold of stimulation GR/PPAR) | MCC [4]
CN1CCc2cc(Cl)c(O)cc2C(c2ccccc2)C1 (single isomer, unassigned) [SCH-23390, 8-chloro-2,3,4,5-tetrahydro-3-methyl-5-phenyl-1H-3-benzazepin-7-ol hemimaleate] | stimulated the transcription | can reverse the inhibition of luciferase expression | 0.59 ± 0.06 fold | 1.32 ± 0.15 fold | 0.55 ± 0.09 fold | 1.22 ± 0.11 fold | 0.83 ± 0.12 fold | 1.64 ± 0.38 fold | 2.61 ± 0.86 fold | 2.38 ± 0.19 fold | 3.1 ± 1.3 s | reversed the lesion-induced impaired performance |  |  |  |  | 
C/C=C/C/C=C/CCC(=O)[C@H]1O[C@H]1C(N)=O [Cerulenin, cerulenin, reference compound] |  |  |  |  |  |  |  |  |  |  |  |  | did not stimulate transcription | 1.03 ± 0.12 | 1.13 ± 0.05 | 0.58 ± 0.11 | > 10 µM
